Converted amounts (≈) assume the structure as drawn. Counter-ions that a name gives are not always drawn. Like-named read-outs stand apart in the source and are kept apart here.
Assays:
[1] = test system: M. tuberculosis Erdman ATCC 35801; assay: Mycobacterium tuberculosis serum shift MIC assay (Protocol 5); type: cell-based
[2] = Seven-day oral (gavage) toxicity and toxicokinetics study in rats; type: in vivo, Crl:CD(SD) rats; details: for Mean food consumption: Compound 13 once daily 100 or 200 mg/kg, Compound 23A twice daily 300 mg/kg, different intervals of the study, not considered adverse; for adverse observations or effects on mean body weight / dose levels without adverse toxicity within the scope of the study / NOEL (No-Observable-Effect-Level) / exposures for different dosage levels: male rats; for adverse observations or effects on mean body weight / dose levels without adverse toxicity within the scope of the study: 7 days oral gavage; for NOEL (No-Observable-Effect-Level): once a day for 7 days orally via gavage; for exposures for different dosage levels: oral gavage, toxicokinetics; for histopathological findings: any dose regimen
Excerpt: Crl:CD(SD) rats were obtained from Charles River Laboratories of Stone Ridge, N.Y. The animals were laboratory bred and experimentally naïve. Rats were chosen because they are a species that is commonly used for nonclinical toxicity evaluations.
Forty rats (20 noncannulated males and 20 males with jugular vein cannulas) were ordered. From these animals, 15 noncannulated males and 15 cannulated males were used. Animals were as uniform in age as possible. The rats were prepubertal to young adult, approximately 9 weeks of age at initiation of dosing. Their supplier-calculated birth date was retained in the study records. The weight range for the animals at the time of allocation to groups was 218.5-306.3 g.
Animals received the test article or vehicle by oral gavage for 7 consecutive days and were terminated the day following completion of dosing. The first day of dosing was designated as Day 1 of the study. The animals were evaluated for changes in clinical signs, body weight, and other parameters as described below.
The vehicle and test article were administered by oral gavage once daily for 7 consecutive days at a dose volume of 10 mL/kg body weight for Group A and Groups B-D, respectively. The test article and vehicle were administered by oral gavage twice daily, approximately 8 hours apart, for 7 consecutive days at a dose volume of 10 mL/kg body weight for Group E and Group F, respectively. The actual volume administered to each animal was calculated and adjusted based on the most recent body weight of each animal.
During the treatment period, daily cageside observations were made and recorded predose and postdose (following the first dose only). The postdosing observations made during treatment occurred at the following times based on Cmax/Tmax for the two compounds from previous studies:
Prior to start of dosing, body weights were measured for randomization on Day 1. During the treatment, body weights were measured on Day 1 and Day 7. In addition, fasted body weights were measured prior to necropsy for calculation of organ/body weight ratios.
Throughout the study, food consumption was measured daily starting 3 days prior to start of dosing.
Blood samples for evaluation of hematology, coagulation, and serum chemistry parameters were collected from all animals from the retro-orbital plexus (under CO2/O2 anesthesia, for the main study animals) or jugular vein cannula (for the toxicokinetic animals) prior to necropsy. Due to residual heparin used to keep the cannulas patent for the toxicokinetic animals, coagulation samples from these rats, were not able to be analyzed. The animals were fasted overnight prior to blood collection. On the day of blood collection for clinical pathology analyses, the animals were not necropsied until after the blood was collected and the samples judged to be acceptable by the clinical pathology group.
On the 1st and 7th day of dosing, blood samples (approximately 0.5 mL/sample) were collected from the jugular vein cannula for all toxicokinetic animals at the timepoints listed below into K3EDTA-containing tubes. […] Prior to each collection, a small sample of blood (with heparin blocking solution) was removed from the cannula and discarded. A new syringe was placed on the cannula, and the protocol-required sample was taken. The syringe with the blood sample was removed, and a new syringe with saline attached to the cannula. Blood volume was replaced with an equal volume of saline and then blocking solution placed in the cannula. Each animal was returned to its cage until the next collection timepoint.
For all animals euthanized at scheduled necropsies, the kidneys, liver, and prostate gland were weighed. Following weighing, an approximate 1 gram sample of liver and kidney was weighed, transferred to Precellys 7 mL CK28 Tissue Homogenizing tubes (Cat. No. 0904-01), snap-frozen, and analyzed. […]

M. tuberculosis H37Rv = details: cited from earlier work
[3] = test system: M. tuberculosis ATCC 35801 (strain Erdman); assay: Mouse M. tuberculosis (Erdman) 28 day lung infection model; type: in vivo, M. tuberculosis; host Balb/c mice; details: 28 days
[4] = Monkey IV pharmacokinetic study; details: Compound W IV 5 mg/kg, D5W, plasma analyte
Description: Animals had free access to food and water before and after dosing.
Blood samples (approximately 0.25 mL each) were collected via a carotid artery catheter prior to dosing and at 0 (predose), 5 min, 10 min, 0.25, 0.5, 1, 2, 3, 4, 6, 8, 12, 24, 48 hours postdose. Each blood sample was collected into a tube that was kept on wet ice and contained potassium EDTA as the anticoagulant. Plasma was separated and stored at approximately −70° C. until analysis.
Plasma concentration vs. time data were subjected to noncompartmental pharmacokinetic (PK) analysis.

[5] = Rat IV pharmacokinetic study; details: D5W, plasma analyte
[6] = Monkey oral pharmacokinetic study; type: in vivo, cynomolgus monkeys; details: 0.5% MC, plasma analyte
Excerpt: (§1) Plasma concentration vs. time data was subjected to noncompartmental pharmacokinetic (PK) analysis.

[7] = Rat oral pharmacokinetic study; type: in vivo, Sprague Dawley rats; details: 0.5% MC, plasma analyte
Excerpt: as §1

[8] = Oral range finding toxicity and toxicokinetic study in male Cynomolgus monkeys; type: in vivo, Cynomolgus monkeys (Macaca Fascicularis)
Excerpt: Cynomolgus monkeys (Macaca Fascicularis) were obtained from Primus Bio-Resources Inc. of PinCourt, Quebec, Canada. Cynomolgus monkeys were chosen because they are a non-rodent species that is commonly used for nonclinical toxicity evaluations.
Eight (2 naive and 6 non-naïve) males were used in the study. The animals were young adults and weighed between 2 to 4 kg at the onset of dosing.
The first day of dosing was designated as Day 1 of the study. The actual volume administered to each animal was calculated and adjusted based on the most recent body weight of each animal.
Cage-side clinical signs (ill health, behavioral changes etc.) were recorded at least once daily during the study.
Body weights were recorded for all animals prior to group assignment and on Days 1 (prior to dosing), 3 and 7 as well as terminally prior to necropsy (fasted).
Electrocardiograms (bipolar limb leads I, II and III, and augmented unipolar leads aVR, aVL and aVF) were obtained for all monkeys once during the pre-treatment period and again on Day 7 (post-dosing).
The tracings were assessed for gross changes indicative of cardiac electrical dysfunction. The potential presence of abnormalities involving heart rate (lead II), sinus and atrioventricular rhythm or conductivity were determined. Heart rate, PR interval, QRS duration, QT and QTc intervals values were measured.
A series of 7 blood samples (approximately 0.5 mL each) were collected from each monkey on Days 1 and 7 at the following time points: predose, 30 minutes and 2, 3, 6, 12 and 24 hours post-dose. For this purpose, each monkey was bled by venipuncture and the samples were collected into tubes containing the anticoagulant, K2EDTA. Tubes were placed on wet ice until ready for processing.
Laboratory investigations (hematology, coagulation, clinical chemistry and urinalysis) were performed on all animals prior to start of treatment and prior to termination on Day 8.
A necropsy with tissue collection was conducted on all animals terminated during the study. The necropsy included examination of:
For all animals, all tissues indicated above were embedded in paraffin, sectioned and stained with hematoxylin and eosin and examined by light microscopy.

[9] = Stability of the solid forms (net increase in total impurities at 40 C/30% RH); type: physicochemical; details: 15 days
[10] = test system: Staphylococcus aureus ATCC 29213; assay: microbe, parasite or virus in culture; type: cell-based; details: Staphylococcus aureus, ATCC29213, Staphylococcus aureus ATCC 29213; Protocol 1; read-out: MIC
[11] = M. tuberculosis Erdman ATCC 35801
[12] = M. tuberculosis Erdman ATCC 35801 with Mouse Serum
[13] = Table 23a, 10 mg/kg BID oral gavage
[14] = Table 23a, 30 mg/kg BID oral gavage
[15] = Table 23a, 100 mg/kg BID oral gavage
[16] = rats, 300 mg/kg twice a day, compared to controls treated twice a day
[17] = doses up to 200 mg/kg/day, 7 days

In the case of `CCNC(=O)Nc1nc2cc(-c3cnc(C(C)(C)O)nc3)cc([C@H]3CCCO3)c2[nH]1` [Compound 13, 1-ethyl-3-[5-[2-(1-hydroxy-1-methyl-ethyl)pyrimidin-5-yl]-7-[(2R)-tetrahydrofuran-2-yl]-1H-benzimidazol-2-yl]urea], the MIC [1, 11] is reported as 0.045 µg/mL, the MIC [1, 12] is reported as 2 µg/mL and the Mean food consumption [2] is reported as “reduced”. For the same compound, the “adverse observations or effects on mean body weight” value [2] was “No adverse observations or effects on mean body weight”, the “dose levels without adverse toxicity within the scope of the study” value [2] was “up to 200 mg/kg/day” and the “NOEL (No-Observable-Effect-Level)” value [2] was 200 mg/kg. For the same compound, the “exposures for different dosage levels” value [2] was “dose related” and the histopathological findings ([2]; rats) was “No test article-related histopathological findings”.
For `NC(=O)c1cnccn1` [Pyrazinamide], the MIC (M. tuberculosis H37Rv; normal pH) is given as 250 µg/mL (≈ 2030 µM) and the MIC (M. tuberculosis H37Rv; pH 6.0) is given as 50 µg/mL (≈ 406 µM).
With `CCNC(=O)Nc1nc2cc(-c3cnc(C(C)(C)O)nc3)c(F)c([C@H]3CCCO3)c2[nH]1` [Compound 23A, methanesulfonic acid salt of 1-ethyl-3-[6-fluoro-5-[2-(1-hydroxy-1-methyl-ethyl)pyrimidin-5-yl]-7-[(2R)-tetrahydrofuran-2-yl]-1H-benzimidazol-2-yl]urea] the “Average Lung Burden” value [3, 13] was 5.08 Log cfu/lungs, the “Log Reduction vs. Early Control” value [3, 13] was −0.10 Log and the “Log Reduction vs. Late Control” value [3, 13] was 0.13 Log. For the same compound, the “Average Lung Burden” value [3, 14] was 4.11 Log cfu/lungs, the “Log Reduction vs. Early Control” value [3, 14] was 0.86 Log and the “Log Reduction vs. Late Control” value [3, 14] was 1.09 Log. For the same compound, the “Average Lung Burden” value [3, 15] was 3.22 Log cfu/lungs, the “Log Reduction vs. Early Control” value [3, 15] was 1.76 Log and the “Log Reduction vs. Late Control” value [3, 15] was 1.98 Log. The “reduction of bacterial burdens versus the early control” value ([3]; doses of 30 and 100 mg/kg) was 0.7-1.5 logs, the MIC [1, 11] was 0.03 µg/mL and the MIC [1, 12] was 0.5 µg/mL. For the same compound, the Mean food consumption [2] was “reduced”, the “adverse observations or effects on mean body weight” value [2] was “No adverse observations or effects on mean body weight” and the “dose levels without adverse toxicity within the scope of the study” value [2] was at most 600 mg/kg/day. For the same compound, the “NOEL (No-Observable-Effect-Level)” value [2] was 100 mg/kg, the “exposures for different dosage levels” value [2] was “dose related” and the AST [2, 16] was “statistically higher”. The “mean ALT” value [2, 16] was “statistically higher”, the “mean calcium ion concentration (CA)” value [2, 16] was “statistically lower” and the histopathological findings ([2]; rats) was “No test article-related histopathological findings”.
Compound `CCNC(=O)Nc1nc2cc(-c3cnc(C(C)(C)O)nc3)c(F)c([C@H]3CCCO3)c2[nH]1` [Compound 23, 1-ethyl-3-[6-fluoro-5-[2-(1-hydroxy-1-methyl-ethyl)pyrimidin-5-yl]-7-[(2R)-tetrahydrofuran-2-yl]-1H-benzimidazol-2-yl]urea] has an AUCextrap [4] of 3810 ng·h/mL, an AUCextrap ([5]; Compound W IV 1 mg/kg) of 310 ng·h/mL and a Cl_obs ([5]; Compound W IV 1 mg/kg) of 54.9 mL/min/kg. For the same compound, the Vss_obs ([5]; Compound W IV 1 mg/kg) was 3.8 L/kg, the t1/2 ([5]; Compound W IV 1 mg/kg) was 1.8 h and the AUCextrap ([5]; Compound W IV 5 mg/kg) was 3060 ng·h/mL. The Cl_obs ([5]; Compound W IV 5 mg/kg) was 27.3 mL/min/kg, the Vss_obs ([5]; Compound W IV 5 mg/kg) was 4.08 L/kg and the t1/2 ([5]; Compound W IV 5 mg/kg) was 3.6 h. For the same compound, the AUCextrap ([6]; Compound W PO 30 mg/kg) was 24800 ng·h/mL, the AUCextrap ([6]; Compound W PO 100 mg/kg) was 76900 ng·h/mL and the AUCextrap ([6]; Compound W PO 300 mg/kg) was 155000 ng·h/mL. The AUCextrap ([7]; Compound W oral 3 mg/kg) was 314 ng·h/mL, the AUCextrap ([7]; Compound W oral 30 mg/kg) was 22600 ng·h/mL and the AUCextrap ([7]; Compound W oral 100 mg/kg) was 77400 ng·h/mL. For the same compound, the “clinical signs, body weights, electrocardiography, clinical pathology, organ weights” value [8, 17] was “no clinical signs, or changes in body weights, electrocardiography parameters, clinical pathology parameters, or organ weights”, the “macroscopic or microscopic findings” value [8, 17] was “no macroscopic or microscopic findings” and the “no observed effect level (NOEL)” value ([8]; male Cynomolgus monkeys, oral gavage once per day for 7 days) was 200 mg/kg/day. The “exposures for different dosage levels” value ([8]; male Cynomolgus monkeys, oral gavage, toxicokinetics) was “dose related”.
In the case of `CCNC(=O)Nc1nc2cc(-c3cnc(C(C)(C)OP(=O)([O-])[O-])nc3)c(F)c([C@H]3CCCO3)c2[nH]1.[Na+].[Na+]` [Amorphous di-Na salt, disodium (R)-2-(5-(2-(3-ethylureido)-6-fluoro-7-(tetrahydrofuran-2-yl)-1H-benzo[d]imidazol-5-yl)pyrimidin-2-yl)propan-2-yl phosphate], the “Net % increase in total impurities” value [9] is reported as 1.74% and the MIC [10] is reported as 4 µg/mL.
For `COc1c(N2C[C@@H]3CCCN[C@@H]3C2)c(F)cc2c(=O)c(C(=O)O)cn(C3CC3)c12` [Moxifloxacin, reference compound], the “Average Lung Burden” value ([3]; Table 23a, 100 mg/kg QD) was 2.94 Log cfu/lungs, the “Log Reduction vs. Early Control” value ([3]; Table 23a, 100 mg/kg QD) was 2.04 Log and the “Log Reduction vs. Late Control” value ([3]; Table 23a, 100 mg/kg QD) was 2.26 Log. The “Log Reduction vs. Early Control” value ([3]; Table 23b, 100 mg/kg QD) was 2.04 Log, the “Log Reduction vs. Late Control” value ([3]; Table 23b, 100 mg/kg QD) was 1.42 Log and the “Median Lung Burden” value ([3]; Table 23b, 100 mg/kg QD) was 2.94 Log cfu/lungs.

Source: patent publication US9018216B2, “Solid forms of (R)-2-(5-(2-(3-ethylureido)-6-fluoro-7-(tetrahydrofuran-2-yl)-1H-benzo[d]imidazol-5-yl)pyrimidin-2-yl)propan-2-yl dihydrogen phosphate and salts thereof” (priority 2012, dated 2015)
